Assay results taken from patent US8299048B2, “Hexahydrocyclopentyl[f]indazole sulfonamides and derivatives thereof as selective glucocorticoid receptor modulators” (Merck Sharp & Dohme Corp., priority 2008, dated 2012).

Legend:
[1] = biological target: T1, human GR (Homo sapiens, UniProt P04150); assay: Transrepression Assay (GITAR), TNFα-β-lactamase reporter in U937 cells; assay type: cell-based; parameters: U937 cells contain an endogenous glucocorticoid receptor (GR); endogenous in cells; host or cells: U937 cells stably transfected with the TNF-alpha promoter/beta-lactamase reporter; conditions: for GITAR > GRAMM % SEP: GITAR Emax minus GRAMMER Emax; for EC50: U937 cells, inflection point, read-out: Transrepression U937 Cells GITAR IP
T1 sequence (P04150 1-777): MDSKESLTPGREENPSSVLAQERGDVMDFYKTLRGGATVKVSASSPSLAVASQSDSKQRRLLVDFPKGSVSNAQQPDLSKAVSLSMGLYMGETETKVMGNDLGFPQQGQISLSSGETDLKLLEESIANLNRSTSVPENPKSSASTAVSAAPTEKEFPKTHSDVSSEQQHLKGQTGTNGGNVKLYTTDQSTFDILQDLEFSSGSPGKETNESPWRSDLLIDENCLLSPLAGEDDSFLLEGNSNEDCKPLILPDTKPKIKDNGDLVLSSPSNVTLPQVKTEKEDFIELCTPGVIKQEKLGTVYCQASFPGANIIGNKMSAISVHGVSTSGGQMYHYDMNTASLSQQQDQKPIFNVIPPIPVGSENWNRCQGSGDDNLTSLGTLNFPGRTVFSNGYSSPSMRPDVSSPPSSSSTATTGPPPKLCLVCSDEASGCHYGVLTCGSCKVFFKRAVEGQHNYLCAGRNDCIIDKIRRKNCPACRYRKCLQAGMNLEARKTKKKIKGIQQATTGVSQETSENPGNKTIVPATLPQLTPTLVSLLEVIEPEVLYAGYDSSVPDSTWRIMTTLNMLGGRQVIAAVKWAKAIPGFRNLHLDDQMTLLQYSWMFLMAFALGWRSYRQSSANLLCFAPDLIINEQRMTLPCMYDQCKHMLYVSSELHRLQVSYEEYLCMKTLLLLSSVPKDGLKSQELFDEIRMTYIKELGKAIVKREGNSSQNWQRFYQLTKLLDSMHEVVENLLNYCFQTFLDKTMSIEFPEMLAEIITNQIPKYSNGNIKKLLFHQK
How it was run: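 U937 cells stably carrying a TNF-α promoter–β-lactamase reporter, with endogenous GR, are preincubated with compound 30–45 min at 37 °C, then stimulated with PMA (5 ng/ml final) and LPS (100 ng/ml final) overnight (~18 hr). β-Lactamase is read with CCF2-AM substrate; repression by 100 nM dexamethasone defines 100%.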

[2] = biological target: T1, human GR; assay: Trans-Activation Modulation of Glucocorticoid Receptor (GRAMMER), MMTV-LUC reporter, agonist mode; assay type: cell-based; parameters: endogenous in cells; conditions: for Emax: A549, A549 cells, maximum activity, read-out: Transactivation A549 Cells GRAMMER Emax; for EC50: A549 cells, inflection point, read-out: Transactivation A549 Cells GRAMMER IP
How it was run: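 Readout is luciferase from a modified MMTV LTR promoter after 24 h compound exposure alongside 10 nM dexamethasone (100% activity reference), DMSO ≤1%.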

[3] = U-937, U937 cells, maximum activity, read-out: Transrepression U937 Cells GITAR Emax
[4] = U-937, activity repressed by 100 nM dexamethasone alone set as 100%, read-out: maximal activity in the transrepression (GITAR) assay

| SMILES | GITAR > GRAMM % SEP [1] | EC50 [1] | Emax [1, 3] | Emax [1, 4] | Emax [2] | EC50 [2] |
| --- | --- | --- | --- | --- | --- | --- |
| C[C@@H](O)CN(C[C@H]1CCC2=Cc3c(cnn3-c3ccc(F)cc3)C[C@@]21C)S(=O)(=O)c1ccc(F)c(Cl)c1 [Example 115, 3-chloro-4-fluoro-N-{[(4αR,5S)-1-(4-fluorophenyl)-4α-methyl-1,4,4α,5,6,7-hexahydrocyclopenta[f]indazol-5-yl]methyl}-N-[(2R)-2-hydroxypropyl]benzenesulfonamide] | 31.2% | 643 nM | 57.4% | > 5% | 26.1% | 786 nM |
| C[C@]12Cc3cnn(-c4ccc(F)cc4)c3C=C1CC[C@@H]2CN(CC(OS(=O)(=O)CC(F)(F)F)c1ccccn1)S(=O)(=O)CC(F)(F)F (stereo partly drawn) [Example 145, 2-{{[(4αR,5S)-1-(4-fluorophenyl)-4α-methyl-1,4,4α,5,6,7-hexahydrocyclopenta[f]indazol-5-yl]methyl}[(2,2,2-trifluoroethyl)sulfonyl]amino}-1-pyridin-2-ylethyl 2,2,2-trifluoroethanesulfonate] | 33.3% | 196 nM | 93.5% | > 5% | 60.2% | 204 nM |
| COCCN(C[C@H]1CCC2=Cc3c(cnn3-c3ccc(F)cc3)C[C@@]21C)S(C)(=O)=O [Example 96, N-{[(4αR,5S)-1-(4-fluorophenyl)-4α-methyl-1,4,4α,5,6,7-hexahydrocyclopenta[f]indazol-5-yl]methyl}-N-(2-methoxyethyl)methanesulfonamide] | 19.3% | 124 nM | 85% | > 5% | 65.7% | 152 nM |
| C[C@]12Cc3cnn(-c4ccc(F)cc4)c3C=C1CC[C@@H]2CN(CCc1ccccn1)S(=O)(=O)Cc1ccccc1C(F)(F)F [Example 153, N-{[(4αR,5S)-1-(4-fluorophenyl)-4α-methyl-1,4,4α,5,6,7-hexahydrocyclopenta[f]indazol-5-yl]methyl}-N-(2-pyridin-2-ylethyl)-1-[2-(trifluoromethyl)phenyl]methanesulfonamide] | 37.2% | 263 nM | 52.4% | > 5% | 15.2% | 315 nM |
| CCCS(=O)(=O)N(CCc1ccccn1)C[C@H]1CCC2=Cc3c(cnn3-c3ccc(F)cc3)C[C@@]21C [Example 151, N-{[(4αR,5S)-1-(4-fluorophenyl)-4α-methyl-1,4,4α,5,6,7-hexahydrocyclopenta[f]indazol-5-yl]methyl}-N-(2-pyridin-2-ylethyl)propane-1-sulfonamide] | 7.2% | 551 nM | 83.3% | > 5% | 76% | 421 nM |
| CCCS(=O)(=O)N(CC(O)C(F)(F)F)C[C@H]1CCC2=Cc3c(cnn3-c3ccc(F)cc3)C[C@@]21C (stereo partly drawn) [Example 148, N-{[(4αR,5S)-1-(4-fluorophenyl)-4α-methyl-1,4,4α,5,6,7-hexahydrocyclopenta[f]indazol-5-yl]methyl}-N-(3,3,3-trifluoro-2-hydroxypropyl)propane-1-sulfonamide] | 14.9% | 858 nM | 77.6% | > 5% | 62.6% | 403 nM |
| Cc1noc(C)c1S(=O)(=O)N(CCc1ccccc1O)C[C@H]1CCC2=Cc3c(cnn3-c3ccc(F)cc3)C[C@@]21C [Example 123, N-{[(4αR,5S)-1-(4-fluorophenyl)-4α-methyl-1,4,4α,5,6,7-hexahydrocyclopenta[f]indazol-5-yl]methyl}-N-[2-(2-hydroxyphenyl)ethyl]-3,5-dimethylisoxazole-4-sulfonamide] | 25.4% | 128 nM | 90.8% | > 5% | 65.4% | 195 nM |
| C[C@]12Cc3cnn(-c4ccc(F)cc4)c3C=C1CC[C@@H]2CN(CC1(O)CC1)S(=O)(=O)CC(F)(F)F [Example 135, 2,2,2-trifluoro-N-{[(4αR,5S)-1-(4-fluorophenyl)-4α-methyl-1,4,4α,5,6,7-hexahydrocyclopenta[f]indazol-5-yl]methyl}-N-[(1-hydroxycyclopropyl)methyl]ethanesulfonamide] | 19.2% | 258 nM | 87.9% | > 5% | 68.8% | 127 nM |
| C[C@]12Cc3cnn(-c4ccc(F)cc4)c3C=C1CC[C@@H]2CN(CCc1ccc(O)cc1)S(=O)(=O)CC(F)(F)F [Example 130, 2,2,2-trifluoro-N-{[(4αR,5S)-1-(4-fluorophenyl)-4α-methyl-1,4,4α,5,6,7-hexahydrocyclopenta[f]indazol-5-yl]methyl}-N-[2-(4-hydroxyphenyl)ethyl]ethanesulfonamide] | 13.6% | 229 nM | 79.7% | > 5% | 66.1% | 369 nM |
| C[C@]12Cc3cnn(-c4ccc(F)cc4)c3C=C1CC[C@@H]2CN(CCc1ccccc1F)S(=O)(=O)c1ccccc1Cl [Example 100, 2-chloro-N-[2-(2-fluorophenyl)ethyl]-N-{[(4αR,5S)-1-(4-fluorophenyl)-4α-methyl-1,4,4α,5,6,7-hexahydrocyclopenta[f]indazol-5-yl]methyl}benzenesulfonamide] | 14.2% | 192 nM | 79.1% | > 5% | 64.9% | 397 nM |
| C[C@H](O)CN(C[C@H]1CCC2=Cc3c(cnn3-c3ccc(F)cc3)C[C@@]21C)S(=O)(=O)c1ccc(F)c(Cl)c1 [Example 112, 3-chloro-4-fluoro-N-{[(4αR,5S)-1-(4-fluorophenyl)-4α-methyl-1,4,4α,5,6,7-hexahydrocyclopenta[f]indazol-5-yl]methyl}-N-[(2S)-2-hydroxypropyl]benzenesulfonamide] | 32.3% | 337 nM | 65.7% | > 5% | 33.4% | 423 nM |
| Cn1cc(S(=O)(=O)N(CCc2ccccc2F)C[C@H]2CCC3=Cc4c(cnn4-c4ccc(F)cc4)C[C@@]32C)c(C(F)(F)F)n1 [Example 98, N-[2-(2-fluorophenyl)ethyl]-N-{[(4αR,5S)-1-(4-fluorophenyl)-4α-methyl-1,4,4α,5,6,7-hexahydrocyclopenta[f]indazol-5-yl]methyl}-1-methyl-3-(trifluoromethyl)-1H-pyrazole-4-sulfonamide] | 13.2% | 64.3 nM | 89.9% | > 5% | 76.7% | 239 nM |
| Cn1cc(S(=O)(=O)N(CCc2ccccn2)C[C@H]2CCC3=Cc4c(cnn4-c4ccc(F)cc4)C[C@@]32C)c(C(F)(F)F)n1 [Example 150, N-{[(4αR,5S)-1-(4-fluorophenyl)-4α-methyl-1,4,4α,5,6,7-hexahydrocyclopenta[f]indazol-5-yl]methyl}-1-methyl-N-(2-pyridin-2-ylethyl)-3-(trifluoromethyl)-1H-pyrazole-4-sulfonamide] | 33.7% | 376 nM | 79.3% | > 5% | 45.6% | 346 nM |
